{"source": "paper PMC8342417", "about": "“The structure of an archaeal oligosaccharyltransferase provides insight into the strict exclusion of proline from the N-glycosylation sequon” (Communications Biology, 2021)", "target": "T1, AfAglB (AglB-L, A. fulgidus oligosaccharyltransferase) (Archaeoglobus fulgidus, UniProt O29867, G617C)", "T1 construct": "gene aglB3; full length 868 residues; E. coli C43(DE3); C-terminal His10 cut by thrombin leaving ELALVPR; single-subunit membrane protein in DDM, then LCP", "T1 sequence (O29867 whole entry G617C)": "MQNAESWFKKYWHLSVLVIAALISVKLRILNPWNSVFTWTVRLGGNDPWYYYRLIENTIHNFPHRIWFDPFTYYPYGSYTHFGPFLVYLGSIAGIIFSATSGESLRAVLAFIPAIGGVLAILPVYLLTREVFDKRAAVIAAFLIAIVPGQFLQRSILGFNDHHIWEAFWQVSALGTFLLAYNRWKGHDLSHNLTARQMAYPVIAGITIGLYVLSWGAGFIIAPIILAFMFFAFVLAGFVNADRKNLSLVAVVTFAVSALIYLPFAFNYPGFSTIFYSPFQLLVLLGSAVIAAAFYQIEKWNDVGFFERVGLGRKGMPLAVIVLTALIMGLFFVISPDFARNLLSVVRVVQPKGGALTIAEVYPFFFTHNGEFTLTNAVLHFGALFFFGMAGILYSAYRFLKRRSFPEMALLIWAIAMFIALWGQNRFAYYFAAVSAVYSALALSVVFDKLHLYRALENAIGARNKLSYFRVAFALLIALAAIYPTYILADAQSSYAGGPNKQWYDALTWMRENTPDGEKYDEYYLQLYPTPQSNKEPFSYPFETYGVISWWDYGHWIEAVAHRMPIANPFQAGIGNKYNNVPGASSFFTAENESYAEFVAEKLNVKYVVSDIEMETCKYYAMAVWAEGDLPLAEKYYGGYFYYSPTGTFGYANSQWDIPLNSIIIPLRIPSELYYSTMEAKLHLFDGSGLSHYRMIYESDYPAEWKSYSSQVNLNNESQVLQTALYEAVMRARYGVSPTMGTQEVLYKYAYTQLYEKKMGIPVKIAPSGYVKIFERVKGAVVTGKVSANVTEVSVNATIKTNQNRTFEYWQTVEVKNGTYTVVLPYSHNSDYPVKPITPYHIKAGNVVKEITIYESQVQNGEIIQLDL", "experiment": "X-ray crystal structure (LCP), […] Å", "type": "binding", "details": "ternary complex with disulfide-tethered peptide TAMRA-APY(Dab)VTASCR and Mn2+; pH 6.0; LLO donor site; from hydrolysis of native LLO mixture (C55 and C60) during crystallization, modelled as C60", "data": [{"smiles": "C/C(=C/CC/C(C)=C\\CC/C(C)=C\\CC/C(C)=C/CC/C(C)=C\\CC/C(C)=C\\CC[C@H](C)CCOP(=O)(O)O)CC/C=C(/C)CC/C=C(/C)CCCC(C)CCCC(C)CCCC(C)C", "note": "(stereo partly shown) [dolichol-phosphate]", "values": [{"measurement": "X-ray crystal structure (LCP), 2.7 Å", "value": "LLO binding site was occupied by a dolichol-phosphate, instead of an intact LLO"}]}]}
